# Laboratory results reported in US20060069132A1, “Azolecarboxamide herbicides” (priority 2004, published 2006).
# What was measured:
# barnyardgrass [1] = experiment: Test B pre-/postemergence herbicide test; assay type: in vivo, Echinochloa crus-galli; conditions: for Barnyardgrass plant response rating: postemergence, visual rating, scale 0 (no effect) to 100 (complete control)
# Outline: (§1)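 Test chemicals in a non-phytotoxic solvent mixture with surfactant were applied preemergence to seeded species and postemergence to plants 2-18 cm tall (1- to 4-leaf stage); rice and barnyardgrass were also tested in a flooded paddy at the 2-leaf stage. Visual rating versus controls after 13-15 days in greenhouse, scale 0 (no effect) to 100 (complete control).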
# giant foxtail [2] = experiment: Test B pre-/postemergence herbicide test; assay type: in vivo, Setaria faberi; conditions: for Foxtail, Giant plant response rating: postemergence, visual rating, scale 0 (no effect) to 100 (complete control)
# Outline: (§2)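 Flooded paddy rice and barnyardgrass were treated at the 2-leaf stage; upland plantings received compound either on sown seed or on 1- to 4-leaf seedlings. All were kept 13–15 days in a greenhouse and scored visually, 0–100, relative to untreated plants.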
# ducksalad = experiment: Test B flooded paddy test; assay type: in vivo, Heteranthera limosa; conditions: 1000 g ai/ha, visual rating, scale 0 to 100 (0 no effect, 100 complete control), 13 to 15 days
# Outline: (§3)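 Paddy species grown to the 2-leaf stage under flooding; blackgrass sprayed postemergence at 2–18 cm (1- to 4-leaf stage). Plants kept in a greenhouse for 13 to 15 days, then visually rated against controls on 0 (no effect) to 100 (complete control).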
# large crabgrass [3] = experiment: Test A pre-/postemergence herbicide test; assay type: in vivo, Digitaria sanguinalis
# Outline: (§4)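 Sandy loam soil given preemergence directed spray; plants at 2 to 10 cm, one- to two-leaf stage, sprayed to runoff postemergence, compounds in non-phytotoxic solvent with surfactant. Injury rated visually versus untreated controls after about ten greenhouse days, 0 (no effect) to 100 (complete control); dash means not tested.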
# giant foxtail [4] = experiment: Test A pre-/postemergence herbicide test; assay type: in vivo, Setaria faberi
# Outline: as §4
# redroot pigweed = experiment: Test A pre-/postemergence herbicide test; assay type: in vivo, Amaranthus retroflexus
# Outline: as §4
# barnyardgrass [5] = experiment: Test A pre-/postemergence herbicide test; assay type: in vivo, Echinochloa crus-galli
# Outline: as §4
# blackgrass = experiment: Test B postemergence herbicide test; assay type: in vivo, Alopecurus myosuroides; conditions: postemergence, visual rating, scale 0 (no effect) to 100 (complete control)
# Outline: as §3
# rice [6] = experiment: Test B pre-/postemergence herbicide test; assay type: in vivo, Oryza sativa; conditions: preemergence
# Outline: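 Evaluation is visual, comparing treated with control plants on a scale where 0 means no effect and 100 means full control. Treatments were preemergence, or postemergence on seedlings 2–18 cm tall, and held 13–15 days in the greenhouse.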
# wheat = experiment: Test B postemergence herbicide test; assay type: in vivo, Triticum aestivum; design: key to Wheat plant response rating: 0 = no effect, 100 = complete control; conditions: postemergence, visual rating, scale 0 (no effect) to 100 (complete control)
# Outline: (§5)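 Greenhouse test; postemergence application to plants at 1–4 leaves (2–18 cm); paddy species at 2 leaves; evaluated visually vs controls at 13–15 days; scale 0–100 (100 = complete control).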
# barnyardgrass [7] = experiment: Test B flooded paddy test; assay type: in vivo, Echinochloa crus-galli; conditions: 1000 g ai/ha, visual rating, scale 0 to 100 (0 no effect, 100 complete control), 13 to 15 days
# Outline: as §3
# velvetleaf [8] = experiment: Test B pre-/postemergence herbicide test; assay type: in vivo, Abutilon theophrasti; conditions: for Velvetleaf plant response rating: postemergence, visual rating, scale 0 (no effect) to 100 (complete control)
# Outline: as §2
# corn = experiment: Test B pre-/postemergence herbicide test; assay type: in vivo, Zea mays; conditions: for Corn plant response rating: postemergence, visual rating, scale 0 (no effect) to 100 (complete control)
# Outline: as §2
# lambsquarters = experiment: Test B pre-/postemergence herbicide test; assay type: in vivo, Chenopodium album; conditions: for Lambsquarters plant response rating: postemergence, visual rating, scale 0 (no effect) to 100 (complete control)
# Outline: as §2
# velvetleaf [9] = experiment: Test A pre-/postemergence herbicide test; assay type: in vivo, Abutilon theophrasti
# Outline: as §4
# [10] = test system: small flower umbrella sedge; experiment: Test B flooded paddy test; assay type: in vivo, Cyperus difformis; conditions: 1000 g ai/ha, visual rating, scale 0 to 100 (0 no effect, 100 complete control), 13 to 15 days
# Outline: as §3
# cocklebur = experiment: Test B pre-/postemergence herbicide test; assay type: in vivo, Xanthium strumarium; conditions: for Cocklebur plant response rating: postemergence, visual rating, scale 0 (no effect) to 100 (complete control)
# Outline: as §1
# morningglory [11] = experiment: Test A pre-/postemergence herbicide test; assay type: in vivo, Ipomoea spp.
# Outline: as §4
# morningglory [12] = experiment: Test B pre-/postemergence herbicide test; assay type: in vivo, Ipomoea coccinea; conditions: for Morningglory plant response rating: postemergence, visual rating, scale 0 (no effect) to 100 (complete control)
# Outline: as §1
# rice [13] = experiment: Test B flooded paddy test; assay type: in vivo, Oryza sativa; conditions: 1000 g ai/ha, visual rating, scale 0 to 100 (0 no effect, 100 complete control), 13 to 15 days
# Outline: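 After treating 2-leaf paddy plants or 2–18 cm postemergence plants (1 to 4 leaves) with formulated chemical, researchers kept them in a greenhouse for 13–15 days. Effects were judged visually versus controls: 0 indicates none, 100 total control.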
# wild oat = experiment: Test B postemergence herbicide test; assay type: in vivo, Avena fatua; conditions: postemergence, visual rating, scale 0 (no effect) to 100 (complete control)
# Outline: as §5
# pigweed = experiment: Test B pre-/postemergence herbicide test; assay type: in vivo, Amaranthus retroflexus; conditions: for Pigweed plant response rating: postemergence, visual rating, scale 0 (no effect) to 100 (complete control)
# Outline: as §2
# large crabgrass [14] = experiment: Test B pre-/postemergence herbicide test; assay type: in vivo, Digitaria sanguinalis; conditions: for Crabgrass, Large plant response rating: postemergence, visual rating, scale 0 (no effect) to 100 (complete control)
# Outline: as §2
# Surinam grass = experiment: Test B pre-/postemergence herbicide test; assay type: in vivo, Urochloa decumbens; conditions: for Surinam Grass plant response rating: postemergence, visual rating, scale 0 (no effect) to 100 (complete control)
# Outline: as §2
# [15] = 125 g ai/ha, 0 = no effect, 100 = complete control, preemergence
# [16] = 500 g ai/ha, visual rating 0-100, 0 no effect, 100 complete control, preemergence
# [17] = Postemergence, 500 g ai/ha, 0 to 100 scale, 0 no effect, 100 complete control
# [18] = Postemergence, 2000 g ai/ha, 0 to 100 scale, 0 no effect, 100 complete control
# [19] = Preemergence, 2000 g ai/ha, visual rating, 0 to 100 scale (0 no effect, 100 complete control)
# [20] = preemergence, 500 g ai/ha, visual injury, 0 to 100 scale (0 no effect, 100 complete control)
smiles,measurement,setting,value
C#CCNC(=O)c1cccc(NC(=O)c2sc(C(C)(C)C)nc2C)c1 [Compound 203],Barnyardgrass plant response rating (0 to 100 scale),barnyardgrass [1]; [15],0
same,"Plant response rating, Barnyardgrass",barnyardgrass [1]; [16],10
same,Barnyardgrass plant response rating,barnyardgrass [1]; 125 g ai/ha,0
same,Barnyardgrass plant response rating,barnyardgrass [1]; 500 g ai/ha,0
same,"Foxtail, Giant plant response rating (0 to 100 scale)",giant foxtail [2]; [15],0
same,"Plant response rating, Foxtail, Giant",giant foxtail [2]; [16],10
same,"Foxtail, Giant plant response rating",giant foxtail [2]; 125 g ai/ha,0
same,"Foxtail, Giant plant response rating",giant foxtail [2]; 500 g ai/ha,10
same,Ducksalad plant response rating,ducksalad,0
same,"Crabgrass, Large plant response rating",large crabgrass [3]; [17],10
same,"Plant response rating, Crabgrass, Large",large crabgrass [3]; [18],15
same,"Crabgrass, Large plant response rating",large crabgrass [3]; [19],75
same,"Crabgrass, Large plant response rating",large crabgrass [3]; [20],50
same,"Foxtail, Giant plant response rating",giant foxtail [4]; [17],10
same,"Plant response rating, Foxtail, Giant",giant foxtail [4]; [18],20
same,"Foxtail, Giant plant response rating",giant foxtail [4]; [19],75
same,"Foxtail, Giant plant response rating",giant foxtail [4]; [20],30
same,Pigweed plant response rating,redroot pigweed; [17],35
same,"Plant response rating, Pigweed",redroot pigweed; [18],80
same,Pigweed plant response rating,redroot pigweed; [19],90
same,Pigweed plant response rating,redroot pigweed; [20],90
same,Barnyardgrass plant response rating,barnyardgrass [5]; [17],10
same,"Plant response rating, Barnyardgrass",barnyardgrass [5]; [18],30
same,Barnyardgrass plant response rating,barnyardgrass [5]; [19],60
same,Barnyardgrass plant response rating,barnyardgrass [5]; [20],10
same,Blackgrass plant response rating,blackgrass; 125 g ai/ha,0
same,Blackgrass plant response rating,blackgrass; 500 g ai/ha,0
same,Rice plant response rating (0 to 100 scale),"rice [6]; 125 g ai/ha, 0 = no effect, 100 = complete control",0
same,"Plant response rating, Rice","rice [6]; 500 g ai/ha, visual rating 0-100, 0 no effect, 100 complete control",0
same,Wheat plant response rating,wheat; 125 g ai/ha,0
same,Wheat plant response rating,wheat; 500 g ai/ha,0
same,Barnyardgrass plant response rating,barnyardgrass [7],0
same,Velvetleaf plant response rating (0 to 100 scale),velvetleaf [8]; [15],0
same,"Plant response rating, Velvetleaf",velvetleaf [8]; [16],20
same,Velvetleaf plant response rating,velvetleaf [8]; 125 g ai/ha,0
same,Velvetleaf plant response rating,velvetleaf [8]; 500 g ai/ha,10
same,Corn plant response rating (0 to 100 scale),corn; [15],0
same,"Plant response rating, Corn",corn; [16],0
same,Corn plant response rating,corn; 125 g ai/ha,0
same,Corn plant response rating,corn; 500 g ai/ha,10
same,Lambsquarters plant response rating (0 to 100 scale),lambsquarters; [15],10
same,"Plant response rating, Lambsquarters",lambsquarters; [16],30
same,Lambsquarters plant response rating,lambsquarters; 125 g ai/ha,10
same,Lambsquarters plant response rating,lambsquarters; 500 g ai/ha,50
same,Velvetleaf plant response rating,velvetleaf [9]; [17],10
same,"Plant response rating, Velvetleaf",velvetleaf [9]; [18],10
same,Velvetleaf plant response rating,velvetleaf [9]; [19],35
same,Velvetleaf plant response rating,velvetleaf [9]; [20],15
same,"Sedge, Umbrella plant response rating",[10],0
same,Cocklebur plant response rating (0 to 100 scale),cocklebur; [15],0
same,"Plant response rating, Cocklebur",cocklebur; [16],10
same,Cocklebur plant response rating,cocklebur; 125 g ai/ha,0
same,Cocklebur plant response rating,cocklebur; 500 g ai/ha,10
same,Morningglory plant response rating,morningglory [11]; [17],50
same,"Plant response rating, Morningglory",morningglory [11]; [18],55
same,Morningglory plant response rating,morningglory [11]; [19],15
same,Morningglory plant response rating,morningglory [11]; [20],10
same,Morningglory plant response rating (0 to 100 scale),morningglory [12]; [15],0
same,"Plant response rating, Morningglory",morningglory [12]; [16],10
same,Morningglory plant response rating,morningglory [12]; 125 g ai/ha,0
same,Morningglory plant response rating,morningglory [12]; 500 g ai/ha,30
same,Rice plant response rating,rice [13],0
same,"Oat, Wild plant response rating",wild oat; 125 g ai/ha,0
same,"Oat, Wild plant response rating",wild oat; 500 g ai/ha,10
same,Pigweed plant response rating (0 to 100 scale),pigweed; [15],10
same,"Plant response rating, Pigweed",pigweed; [16],90
same,Pigweed plant response rating,pigweed; 125 g ai/ha,0
same,Pigweed plant response rating,pigweed; 500 g ai/ha,10
same,"Crabgrass, Large plant response rating (0 to 100 scale)",large crabgrass [14]; [15],30
same,"Plant response rating, Crabgrass, Large",large crabgrass [14]; [16],80
same,"Crabgrass, Large plant response rating",large crabgrass [14]; 125 g ai/ha,0
same,"Crabgrass, Large plant response rating",large crabgrass [14]; 500 g ai/ha,10
same,Surinam Grass plant response rating (0 to 100 scale),Surinam grass; [15],0
same,"Plant response rating, Surinam Grass",Surinam grass; [16],0
same,Surinam Grass plant response rating,Surinam grass; 125 g ai/ha,10
same,Surinam Grass plant response rating,Surinam grass; 500 g ai/ha,20
